Measurements as given in patent publication US11414431B2, “Substituted pyrazolo[1,5-a]pyrimidines as TYK2 inhibitors” (Nimbus Lakshmi, Inc., priority 2018, dated 2022).

system: IL-12 induced STAT4 phosphorlyation mediated by TYK2/JAK2; assay: IL-12 Induced pSTAT4 in Human PBMC; assay type: cell-based; details: 1.7 ng/mL IL-12 for 30 minutes
Description: Human PBMC were isolated from buffy coat and are stored frozen for assays as needed. […] 15 μL of compound or DMSO was added to the well at the desired concentrations and incubated at 1 hr at 37° C. 15 μL of stimulus (final concentration of 1.7 ng/mL IL-12) was added for 30 minutes prior to pSTAT4 and total STAT4 analysis using cell lysates prepared and analyzed by MSD reagents as per manufacturer protocol. The final DMSO concentration of compound in the assay was 0.1%.
The IL-12 induced pSTAT4 assay evaluates the inhibition of IL-12 induced STAT4 phosphorlyation mediated by TYK2/JAK2 (heterpdimeric complex).

Row | IC50 | SMILES
1 | < 0.1 µM | CNc1cc(Nc2cccn(C3CCOCC3)c2=O)nc2c(C(=O)NC3CCC3(F)F)cnn12 (stereo not drawn) [Compound I-309]
2 | < 0.1 µM | CNc1cc(Nc2cccn(C3CCOCC3)c2=O)nc2c(C(=O)N[C@@H]3CCC3(F)F)cnn12 [Compound I-311]
3 | < 0.1 µM | CNc1cc(Nc2cccn([C@H]3CCCOC3)c2=O)nc2c(C(=O)NC3CCC3(F)F)cnn12 (stereo partly drawn) [Compound I-312]
4 | < 0.1 µM | CNc1cc(Nc2cccn([C@H]3CCCOC3)c2=O)nc2c(C(=O)N[C@@H]3CCC3(F)F)cnn12 [Compound I-314]
5 | < 0.1 µM | CNc1cc(Nc2cccn([C@@H]3CCCOC3)c2=O)nc2c(C(=O)NC3CCC3(F)F)cnn12 (stereo partly drawn) [Compound I-315]
6 | < 0.1 µM | CNc1cc(Nc2cccn([C@@H]3CCCOC3)c2=O)nc2c(C(=O)N[C@@H]3CCC3(F)F)cnn12 [Compound I-317]
7 | < 0.1 µM | CNc1cc(Nc2cccn(-c3ccccn3)c2=O)nc2c(C(=O)NC3CCC3(F)F)cnn12 (stereo not drawn) [Compound I-318]
8 | < 0.1 µM | CNc1cc(Nc2cccn(-c3ccccn3)c2=O)nc2c(C(=O)N[C@@H]3CCC3(F)F)cnn12 [Compound I-320]
9 | < 0.1 µM | CNc1cc(Nc2cccn(-c3ccc(C)nc3)c2=O)nc2c(C(=O)NC3CCC3(F)F)cnn12 (stereo not drawn) [Compound I-324]
10 | < 0.1 µM | CNc1cc(Nc2cccn(-c3ccc(C)nc3)c2=O)nc2c(C(=O)N[C@H]3CCC3(F)F)cnn12 [Compound I-325]
11 | < 0.1 µM | CNc1cc(Nc2cccn([C@@H]3CCC[C@H](C#N)C3)c2=O)nc2c(C(=O)NC3CCC3(F)F)cnn12 (stereo partly drawn) [Compound I-327]
12 | < 0.1 µM | CNc1cc(Nc2cccn([C@@H]3CCC[C@H](C#N)C3)c2=O)nc2c(C(=O)N[C@H]3CCC3(F)F)cnn12 [Compound I-328]
13 | < 0.1 µM | CNc1cc(Nc2cccn([C@H]3CCC[C@@H](C#N)C3)c2=O)nc2c(C(=O)NC3CCC3(F)F)cnn12 (stereo partly drawn) [Compound I-330]
14 | < 0.1 µM | CNc1cc(Nc2cccn([C@H]3CCC[C@@H](C#N)C3)c2=O)nc2c(C(=O)N[C@H]3CCC3(F)F)cnn12 [Compound I-331]
15 | < 0.1 µM | CNc1cc(Nc2cccn([C@@H]3CCOC[C@@H]3OC)c2=O)nc2c(C(=O)NC3CCC3(F)F)cnn12 (stereo partly drawn) [Compound I-336]
16 | < 0.1 µM | CNc1cc(Nc2cccn([C@@H]3CCOC[C@@H]3OC)c2=O)nc2c(C(=O)N[C@@H]3CCC3(F)F)cnn12 [Compound I-338]
17 | < 0.1 µM | CNc1cc(Nc2cccn(C(C)C)c2=O)nc2c(C(=O)NC3CC[C@]3(C)O)cnn12 (stereo partly drawn) [Compound I-339]
18 | < 0.1 µM | CNc1cc(Nc2cccn(C3CCOCC3)c2=O)nc2c(C(=O)NC3CC[C@]3(C)O)cnn12 (stereo partly drawn) [Compound I-348]
19 | < 0.1 µM | CNc1cc(Nc2cccn(C3CCOCC3)c2=O)nc2c(C(=O)N[C@H]3CC[C@]3(C)O)cnn12 [Compound I-349]
20 | < 0.1 µM | CNc1cc(Nc2cccn([C@H]3CC[C@@H]3O)c2=O)nc2c(C(=O)N[C@@H]3CC[C@@]3(C)OC)cnn12 [Compound I-377]
21 | < 0.1 µM | CNc1cc(Nc2cccn([C@H]3CCC[C@H]3O)c2=O)nc2c(C(=O)NC3CC[C@]3(C)OC)cnn12 (stereo partly drawn) [Compound I-390]
22 | < 0.1 µM | CNc1cc(Nc2cccn([C@H]3CCC[C@H]3O)c2=O)nc2c(C(=O)N[C@H]3CC[C@]3(C)OC)cnn12 [Compound I-391]
23 | < 0.1 µM | CNc1cc(Nc2cccn(C3CCOCC3)c2=O)nc2c(C(=O)NC3CC[C@@]3(C)OC)cnn12 (stereo partly drawn) [Compound I-405]
24 | < 0.1 µM | CNc1cc(Nc2cccn(C3CCOCC3)c2=O)nc2c(C(=O)N[C@H]3CC[C@]3(C)OC)cnn12 [Compound I-407]
25 | < 0.1 µM | CNc1cc(Nc2cccn([C@H]3[C@@H]4COC[C@@H]43)c2=O)nc2c(C(=O)N[C@@H]3CC[C@@]3(C)OC)cnn12 [Compound I-410]
26 | < 0.1 µM | CNc1cc(Nc2cccn(-c3ncccc3F)c2=O)nc2c(C(=O)NC3CC[C@@]3(C)OC)cnn12 (stereo partly drawn) [Compound I-414]
27 | < 0.1 µM | CNc1cc(Nc2cccn(-c3ncccc3F)c2=O)nc2c(C(=O)N[C@@H]3CC[C@@]3(C)OC)cnn12 [Compound I-415]
